# Source: patent EP1202967B1, “SULFURIC ACID MONO-[3-({1-[2-(4-FLUORO-PHENYL)-ETHYL]-PIPERIDIN-4-YL}-HYDROXY-METHYL)-2-METHOXY-PHENYL]ESTER” (AVENTIS PHARMACEUTICALS INC., priority 1999, dated 2001)
# Experiments:
# human 5-HT2C = target: T1, human 5-HT2C (Homo sapiens, UniProt P28335); test: Receptor binding assay, inhibition of [3H]-ligand binding to human 5-HT2C; conditions: [3H]mesulergine 2 nM, CHO cell membranes, 37°C, 40 min
# T1 construct: expressed in transfected cells; membranes prepared
# T1 sequence (P28335 33-458): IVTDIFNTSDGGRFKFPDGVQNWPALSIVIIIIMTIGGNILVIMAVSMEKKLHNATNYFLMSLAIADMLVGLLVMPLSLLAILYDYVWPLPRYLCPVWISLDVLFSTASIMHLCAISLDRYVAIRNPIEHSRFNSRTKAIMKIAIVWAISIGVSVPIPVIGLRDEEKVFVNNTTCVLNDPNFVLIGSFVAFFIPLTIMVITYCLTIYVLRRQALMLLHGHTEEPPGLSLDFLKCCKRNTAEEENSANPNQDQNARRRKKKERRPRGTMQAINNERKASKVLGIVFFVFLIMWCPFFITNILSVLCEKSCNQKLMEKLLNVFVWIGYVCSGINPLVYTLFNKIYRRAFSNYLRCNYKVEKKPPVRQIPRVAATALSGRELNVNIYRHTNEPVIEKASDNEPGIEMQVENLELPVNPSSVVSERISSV
# Experimental: (§1) Cells stably expressing the human homologs of the receptors (dopamine D2L, serotonin 5HT2A and 5HT2C, α1A adrenergic; cloned and expressed at Hoechst Marion Roussel; Grandy et al., 1989: Monsma et al., 1993; Schwinn et al., 1995) were grown: cell membranes were prepared, and kept frozen until used (Kongsamut et al., 1996). […] All binding parameters were optimized at Hoechst Marion Roussel; ligand KdS were determined using both saturation analysis (Scatchard) as well as kinetic analysis (association and dissociation rates). Each batch of membrane was validated by checking the ligand Kd, and rank order of potency of selected standard compounds. Assays for the serotonin 5HT2A and dopamine D2L receptors were conducted at 37°C in a Tris buffer containing salts (50 mM Tris Buffer, pH 7.7; 120 mM NaCl; 5 mM KCI; 2 mM CaCl2; 1 mM MgCl2), while the serotonin 5-HT2C and α1A adrenergic receptor assays used a different buffer without salts (50 mM Tris, 4 mM CaCl2 and 1% ascorbate, pH 7.4). […]
# (§2) Membranes were rapidly thawed and diluted to an appropriate concentration (between 20 - 150 µg protein/assay point depending on receptor expression level) in Tris buffer and homogenized. […] Microscint scintillation cocktail (40 µl) were added and the filter plates were counted in a Packard Top Count scintillation counter.
# human 5-HT2A = target: T2, human 5-HT2A (Homo sapiens, UniProt P28223); test: Receptor binding assay, inhibition of [3H]-ligand binding to human 5-HT2A
# T2 construct: expressed in transfected cells; membranes prepared
# T2 sequence (P28223 whole entry): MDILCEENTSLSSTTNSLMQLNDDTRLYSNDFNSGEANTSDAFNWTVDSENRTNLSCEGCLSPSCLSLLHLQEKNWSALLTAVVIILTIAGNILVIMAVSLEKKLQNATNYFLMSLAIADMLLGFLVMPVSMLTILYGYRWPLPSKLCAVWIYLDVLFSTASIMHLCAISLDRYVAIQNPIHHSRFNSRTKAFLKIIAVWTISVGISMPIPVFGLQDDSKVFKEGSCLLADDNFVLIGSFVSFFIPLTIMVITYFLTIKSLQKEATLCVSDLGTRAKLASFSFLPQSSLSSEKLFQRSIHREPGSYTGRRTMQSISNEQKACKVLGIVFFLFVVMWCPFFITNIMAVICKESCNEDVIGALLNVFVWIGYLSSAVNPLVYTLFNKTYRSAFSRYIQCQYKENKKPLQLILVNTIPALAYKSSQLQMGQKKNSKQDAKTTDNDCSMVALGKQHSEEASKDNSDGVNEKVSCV
# Experimental: Cells stably expressing the human homologs of the receptors (dopamine D2L, serotonin 5HT2A and 5HT2C, α1A adrenergic; cloned and expressed at Hoechst Marion Roussel; Grandy et al., 1989: Monsma et al., 1993; Schwinn et al., 1995) were grown: cell membranes were prepared, and kept frozen until used (Kongsamut et al., 1996). The relevance of these binding sites has been extensively discussed in the literature (see for example: Carlsson & Carlsson. 1990; Creese et al., 1976; Gorman & Vargas, 1995; Meltzer et al., 1989). All binding parameters were optimized at Hoechst Marion Roussel; ligand KdS were determined using both saturation analysis (Scatchard) as well as kinetic analysis (association and dissociation rates). Each batch of membrane was validated by checking the ligand Kd, and rank order of potency of selected standard compounds. […]
# as §2, with “counter. Data were analyzed to determine Ki's for compounds of interest (Prusoff & Cheng, […]).Table: Receptor Binding Parameters. […]” for “counter.”
# [1] = Bovine Brain Endothelial Cells (BBMEC) transport study, in vitro BBB permeability; format: in vitro ADME; conditions: BBMEC monolayer, mean ± standard deviation
# Experimental: The compounds of this invention are capable of crossing the blood-brain barrier (BBB) as shown by their ability to penetrate across a membrane of a monolayer of bovine brain microvessel endothelial cells, an in vitro model for BBB permeability.
# The procedure was performed according to: Kenneth L. Audus et al., Brain Microvessel Endothelial Cell Culture System (Chapter 13) pp 239-258. In Models for Assessing Drug Absorption and Metabolism, Ronald T. Borchardt et al. eds., Plenum Press, New York 1996.
# human α1A = target: T3, human α1A (Homo sapiens, UniProt P35348); test: Receptor binding assay, inhibition of [3H]-ligand binding to human α1A; conditions: [3H]prazosin 1 nM, CHO cell membranes, 37°C, 40 min
# T3 construct: expressed in transfected cells; membranes prepared
# T3 sequence (P35348 1-466): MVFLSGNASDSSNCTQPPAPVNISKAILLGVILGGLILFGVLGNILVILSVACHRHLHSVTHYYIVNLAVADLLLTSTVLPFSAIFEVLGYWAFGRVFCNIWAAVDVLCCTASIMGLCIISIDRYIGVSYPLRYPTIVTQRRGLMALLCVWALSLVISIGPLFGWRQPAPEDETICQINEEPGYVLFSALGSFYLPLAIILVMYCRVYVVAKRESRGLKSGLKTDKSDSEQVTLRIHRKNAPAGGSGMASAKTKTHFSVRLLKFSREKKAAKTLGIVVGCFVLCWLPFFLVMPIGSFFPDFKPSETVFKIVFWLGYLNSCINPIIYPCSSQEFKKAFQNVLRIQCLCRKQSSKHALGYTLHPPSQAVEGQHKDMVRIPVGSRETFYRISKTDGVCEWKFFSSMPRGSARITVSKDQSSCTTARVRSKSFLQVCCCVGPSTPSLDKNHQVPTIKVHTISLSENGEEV
# Experimental: as §1, §2
# human D2L = target: T4, human D2L (Homo sapiens, UniProt P14416); test: Receptor binding assay, inhibition of [3H]-ligand binding to human D2L; conditions: [3H]N-methyl spiperone 1 nM, CHO cell membranes, 37°C, 60 min; read-out: D2(Ki µM)
# T4 construct: expressed in transfected cells; membranes prepared
# T4 sequence (P14416 whole entry): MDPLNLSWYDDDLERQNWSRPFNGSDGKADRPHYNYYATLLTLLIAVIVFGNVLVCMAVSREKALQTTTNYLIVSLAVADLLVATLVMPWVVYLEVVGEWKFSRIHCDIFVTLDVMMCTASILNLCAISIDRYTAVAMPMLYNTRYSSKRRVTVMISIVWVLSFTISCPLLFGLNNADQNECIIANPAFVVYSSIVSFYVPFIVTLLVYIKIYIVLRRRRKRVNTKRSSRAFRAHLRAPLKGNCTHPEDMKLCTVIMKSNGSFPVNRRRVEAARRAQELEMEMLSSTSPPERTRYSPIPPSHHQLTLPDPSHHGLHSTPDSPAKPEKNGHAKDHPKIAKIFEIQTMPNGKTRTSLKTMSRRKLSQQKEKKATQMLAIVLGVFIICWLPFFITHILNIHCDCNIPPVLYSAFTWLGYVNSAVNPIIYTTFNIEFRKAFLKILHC
# Experimental: as §1, §2
Structure (SMILES),Ki (human 5-HT2C),"Ki (human 5-HT2A; [3H]N-methyl spiperone 1.5 nM, BHK cell membranes, 37°C, 40 min)",Papp at 5.4 µM [1],Papp at 16 µM [1],Ki (human α1A),Ki (human D2L),"Kd (human 5-HT2A; radioligand Kd at human 5-HT2A, BHK, saturation (Scatchard) and kinetic analysis)"
"COc1c(OS(=O)(=O)O)cccc1C(O)C1CCN(CCc2ccc(F)cc2)CC1 (single isomer, unassigned) [Example 1H, Sulfuric acid mono-(+)-(3-(-{1-[2-(4-fluoro-phenyl)-ethyl]-piperidin-d-yl}-hydroxy-methyl)-2-methoxy-phenyl] ester]",> 1 µM,0.16 µM,41.4 ± 16.4 ×10⁻⁶ cm/s,52.5 ± 9.5 ×10⁻⁶ cm/s,> 1 µM,> 1 µM,
"CN1CN(c2ccccc2)C2(CCN(CCCC(=O)c3ccc(F)cc3)CC2)C1=O [[^3H]N-methyl spiperone, reference compound]",,,,,,,0.00092 µM
"OC[C@@H](O)[C@@H](O)[C@H](O)[C@H](O)CO [Mannitol, reference compound]",,,27.6 ± 2.3 ×10⁻⁶ cm/s,27.6 ± 2.3 ×10⁻⁶ cm/s,,,
